Measurements from US20220265700A1, “METHODS TO PREVENT, INHIBIT OR TREAT INTERVERTEBRAL DISC DEGENERATION” (University of Iowa Research Foundation, priority 2021, published 2022).
Like-named read-outs stand apart in the source and are kept apart here.

Legend:
[1] = tested on: p38; experiment: Immunofluorescence staining of phosphorylated p38; format: cell-based, rabbit
[2] = tested on: ERK; experiment: Immunofluorescence staining of phosphorylated ERK; format: cell-based, rabbit
[3] = tested on: nucleus pulposus cells; settings: for cell viability: normalized by control
[4] = tested on: nucleus pulposus (NP); experiment: DHE staining of IVDs exposed to 100 μM tBHP; format: cell-based, rabbit; settings: 100 μM tBHP 30 minutes, then 10 mM NAC 24 hours
[5] = tested on: Nrf2; experiment: Nrf2 staining, ex vivo organ culture of transversely cut intervertebral discs; format: cell-based, rabbit; settings: 10 mM NAC or […] amobarbital for 24 h after cutting
[6] = tested on: JNK; experiment: Immunofluorescence staining of phosphorylated JNK; format: cell-based, rabbit
[7] = tested on: SOD2 and Nrf2; experiment: SOD2 and Nrf2 IHC staining of tBHP-exposed IVDs; format: cell-based, rabbit; settings: 100 μM tBHP 30 minutes, then 10 mM NAC 24 hours
[8] = tested on: nucleus pulposus tissues; experiment: DHE staining, ex vivo organ culture of transversely cut intervertebral discs; format: cell-based, rabbit; settings: 10 mM NAC or […] amobarbital for 24 h after cutting
[9] = tested on: nucleus pulposus cells; experiment: Mitochondrial ROS production, MitoSOX Red; format: cell-based, rabbit
[10] = Amo stability in HA hydrogel according to USP guidelines; format: physicochemical; settings: mixed with Gel-One HA hydrogel, data not shown
From the text: Amo is primarily applied as a sedative-hypnotic to treat sleep disorder and as a preanesthetic agent.

[11] = tested on: Nrf2; experiment: Nrf2 staining in NP cells under tBHP-induced oxidative stress; settings: pre-treated with […] amobarbital 2 h, then 50 μM tBHP 1 h
[12] = tested on: NP cells; experiment: TUNEL assay, ex vivo IVD puncture model; format: cell-based, rabbit; settings: 7 days; Amo in hydrogel after disc puncture
From the text: Overall study design is illustrated in FIG. 15A. A total of 36 rabbit thoracic and lumbar motion segments (T11/L2) including two vertebral bodies and one IVD were obtained from New Zealand White (NZW) rabbit cadavers (approximately 10-months old) without radiographic evidence of trauma by X-ray. Under sterile conditions, the segments were dissected by removing the posterior elements and soft tissues. The discs were punctured using a 20-gauge needle with 3 mm-depth, and the needle was held in place for 5 seconds. Discal injury was confirmed by herniated nucleus pulposus (NP) through the needle hole. After the puncture, 5 μl hydrogel (17% F-127/0.425% HA) with or without 2.5 mM Amo was injected into the NP using a 30-gauge Hamilton syringe with a stopper (Thermo Fisher Scientific, Waltham, Mass., USA). […]
Apoptotic cells in the NP were detected using a terminal deoxynucleotidyl transferase dUTP nick end labelling (TUNEL) assay (Abcam, Cambridge, Mass., USA) according to the manufacturer's instructions. […] Then, the sections were labeled with terminal transferase (TdT) enzyme for 1.5 h, detected with blocking buffer for 30 min, developed with working 3,3′-diaminobenzidine (DAB) solution for 15 min, and counterstained with methyl green for 1.5 min. After scanning images, the number of positive cells in each tissue was counted and normalized by the data from the 2-days intact group.

[13] = tested on: nucleus pulposus cells; settings: 100 μM tBHP exposure
[14] = tested on: rabbit NP cells; format: cell-based; settings: exposed to 100 μM tBHP
[15] = tested on: nucleus pulposus cells; experiment: Mitochondrial membrane potential, JC-1 assay; format: cell-based, rabbit; settings: 50 μM tBHP 1 h
[16] = tested on: human nucleus pulposus cells; settings: 400 μM tBHP for 6 h (Xu et al. 2019); cited from earlier work
[17] = tested on: rat nucleus pulposus cells; settings: 100 μM tBHP for 24 h (2019 report); cited from earlier work
[18] = 10 mM NAC, […] amobarbital or 20 μM inhibitor, 50 μM tBHP 1 h

SMILES: CC(=O)N[C@@H](CS)C(=O)O [NAC, N-acetylcysteine]
- phosphorylation of p38 vs. tBHP [1, 18]: inhibited the phosphorylation
- phosphorylation of ERK vs. tBHP [2, 18]: inhibited the phosphorylation
- protective effect on cell viability (cell death) ([3]; 0.1-10 mM pre-treatment 2 h prior to 50 μM tBHP, until 24 h): significantly prohibited the cell death
- concentration at which no cytotoxicity was exhibited ([3]; New Zealand White, rabbit, 2 h): lower than 10 mM
- DHE positive cells compared with non-treated control [4]: dramatic reduction
- Nrf2 expression in the cytosol compared with injured control group [5]: approximately 6.8 times
- Nrf2 translocation to the nucleus after injury [5]: prevented
- phosphorylation of JNK vs. tBHP [6, 18]: inhibited the phosphorylation
- oxidative damage in NP cells by SOD2 and Nrf2 IHC staining [7]: reduced oxidative damage
- DHE dye oxidation (ROS) in injured NP tissues [8]: dramatically reduced dye oxidation

SMILES: COc1cccc(-c2cc(=O)c3ccccc3o2)c1N [PD98059]
- phosphorylation of ERK vs. tBHP [2]: minimized the phosphorylation

SMILES: C[S+]([O-])c1ccc(-c2nc(-c3ccncc3)c(-c3ccc(F)cc3)[nH]2)cc1 (stereo not shown) [SB203580]
- phosphorylation of JNK vs. tBHP [6]: minimized the phosphorylation

SMILES: CCC1(CCC(C)C)C(=O)NC(=O)NC1=O [amobarbital]
- MitoSOX-stained cells (imaging) [9]: large decrease
- Amo stability in hydrogel [10]: stability in human biologic fluids and various conditions
- phosphorylation of p38 vs. tBHP [1]: inhibited the phosphorylation
- phosphorylation of ERK vs. tBHP [2]: inhibited the phosphorylation
- protective effect on cell viability (cell death) [3]: significantly prohibited the cell death
- Nrf2 expression in the cytosol compared with injured control group [5]: ~7.8 times
- Nrf2 translocation to the nucleus after injury [5]: prevented
- phosphorylation of JNK vs. tBHP [6]: inhibited the phosphorylation
- Nrf2 expression in the cytosol of NP cells [11]: close to control
- TUNEL-positive (apoptotic) NP cells vs. HG [12]: diminished number of cell apoptosis

SMILES: CC(C)(C)OO [tBHP, tert-butyl hydrogen peroxide]
- apoptotic/necrotic cells after tBHP exposure [13]: became apoptotic and/or necrotic cells
- basal oxygen consumption rate (OCR) [14]: increased
- ratio of J-aggregate form to monomeric form vs. control [15]: significantly reduced
- superoxide production (MitoSOX Red) ([9]; 25 μM tBHP): no superoxide production was observed
- rate of phosphorylated p38 compared with control ([1]; 50 μM tBHP 1 h): ~9.7 times
- phosphorylation of ERK vs. control ([2]; 50 μM tBHP 1 h): significantly phosphorylated
- viability [16]: 54.3%
- cell viability ([3]; 25 μM tBHP, 1 h): 90.8%
- cell viability ([3]; 50 μM tBHP, 1 h): 77.1%
- cell loss (viability) ([3]; 100-400 μM tBHP, 1 h): 70.6-72.9%
- rate of phosphorylated JNK compared with control ([6]; 50 μM tBHP 1 h): approximately 5.9 times
- cell apoptosis relative to control [17]: approximately 7 times
